Measurements from patent US20230263900A1, “DENDRIMER-DRUG CONJUGATE” (priority 2020, published 2023).
Like-named read-outs stand apart in the source and are kept apart here.

Experiments:
[1] = Release of Remdesivir in PBS buffer (Release Method 1); format: physicochemical; conditions: PBS buffer with 10% v/v DMSO, pH 7.4, 37° C.
Protocol: Release Method 1: An accurately weighed amount of the Remdesivir-dendrimer (10 mg) construct was dissolved in pH 7.4 PBS buffer:DMSO (9:1 v/v) and the volume made up to 20.0 mL in a volumetric flask to give a 0.5 mg/mL stock solution. The stock solution was aliquoted into several 2 mL screw-cap vials, the caps fitted and the vials heated at 37° C. The aliquoted solutions were analyzed at different time points by HPLC (HPLC Method 3). The concentration of Remdesivir RHa-1 was calculated by comparing the area under the peak associated with Remdesivir RHa-1 to a standard curve in MeCN:DMSO (9:1, v/v). The percentage of Remdesivir RHa-1 released is the percentage of available Remdesivir RHa-1 based on the loading of the construct as determined by ^1H NMR analysis (API Loading Method 1).
The extent to which the Remdesivir RHa-1 was released over time in PBS buffer (with 10% v/v DMSO) (pH 7.4) at 37° C. was determined for 5 constructs, RHa-17, RHa-15, RHa-11, RHa-5 and RHa-3 (Release Method 1) over 120 hours.
Trace amounts of other components were also observed (presumed to be degradation products of Remdesivir RHa-1). The area under the resolvable (separated) peaks associated with these degradants was also added to the peak area associated with released Remdesivir RHa-1.
BHALys [Lys]2[Lys]4[Lys]8[Lys]16[Lys]32[(α-NH-6N-TDA-Remdesivir)32(ε-NH-COPEG2000)32] RHa-5 contained 1.77% free Remdesivir RHa-1 at t=0 min. The value of released Remdesivir RHa-1 shown in FIG. 3 has been adjusted to take this into account.

[2] = Solubility studies; format: physicochemical
Protocol: The solubility of BHALys[Lys]2[Lys]4[Lys]8[Lys]16[Lys]32[(α-NH-3′ O-Glu-Remdesivir)32(ε-NH-COPEG2000)32] RHa-3 in water was determined to be ≥200 mg/mL (or ≥43.6 mg/mL Remdesivir RHa-1) by adding water (250 μL) to 50.0 mg of BHALys [Lys]2[Lys]4[Lys]8[Lys]16[Lys]32[(α-NH-3′ O-Glu-Remdesivir)32(ε-NH-COPEG2000)32] and swirling briefly. After 2 min, the resulting solution was visually inspected for particulates and found to be a clear solution (see FIG. 2). Solutions shown are 40 mg/ml Remdesivir equivalents (equivalent to 200 mg/ml of conjugate RHa-3).
The solubility of BHALys[Lys]2[Lys]4[Lys]8[Lys]16[Lys]32[(α-NH-6N-TDA-Remdesivir)32(ε-NH-COPEG2000)32] RHa-5, in EtOH:Water (1:9 v/v) was determined to be ≥543 mg/mL (or ≥107 mg/mL Remdesivir RHa-1) by adding water EtOH:Water (1:9 v/v, 400 μL) to 380 mg of RHa-5. The mixture was swirled briefly and left to stand at rt. After 1.5 h the resulting solution (volume recorded=700 μL) was visually inspected for particulates and found to be a clear solution.
The solubility of BHALys[Lys]2[Lys]4[Lys]8[Lys]16[Lys]32[(α-NH-6N-TDA-Remdesivir)32(ε-NH-COPEG1000)32] RHa-17 in EtOH:Water (1:9 v/v) was determined to be ≥354* mg/mL (or ≥85 mg/mL Remdesivir RHa-1) by adding EtOH:Water (1:9 v/v, 958 μL) portionwise to 525 mg of RHa-17, over a period of 1.5 h with intermittent swirling. The resulting solution was visually inspected for particulates and found to be a clear solution.
(*Total volume not recorded. Assumes 1 mg construct contributes to 1 μL of final solution (i.e., total volume of final solution=1483 μL)).

[3] = system: Coronavirus infection; conditions: cited from earlier work
[4] = cited from earlier work
[5] = Viscosity measurements (Viscosity Method 1); format: physicochemical; conditions: 50 mg/mL Remdesivir equivalents in EtOH: Water (1:9 v/v)
Protocol: Viscosities were measured on Anton Paar ViscoQC300 Viscometer using CC-12 cup.
Viscosity Method 1: A reference standard solution (Standard Type: RT500, CAS No. 63148-62-9, Paragon Scientific Ltd) was first recorded and found to be within the range of reported value (at 20° C.: found 556.6 cP, theoretical 551.0 cP; at 25° C.: found 503.3 cP, theoretical 498.6 cP). Accurately weighed quantities of respective conjugates were dissolved in EtOH:Water […] to make a 50 mg/mL Remdesivir equivalent solution (total volume 2.30-2.40 mL) and the viscosity of the solution was recorded at 20° C. and 25° C.
Viscosities of 2 formulations containing either RHa-5 or RHa-17 in EtOH: Water (1:9 v/v) were measured using Viscosity Method 1

Question: With “BHALys[Lys]2[Lys]4[Lys]8[Lys]16[Lys]32[(α-NH-3′O-TDA-Remdesivir)32(ε-NH-COPEG2000)32] [RHa-15]” as the molecule, how does the “Approx. Time taken for 50% Remdesivir release” value [1] read?
Answer: ~9 h

Question: Which results are given for CCC(CC)COC(=O)[C@H](C)N[P@](=O)(OC[C@H]1O[C@@](C#N)(c2ccc3c(N)ncnn23)[C@H](O)[C@@H]1O)Oc1ccccc1 [RDV, 2-Ethylbutyl (2S)-2-{[(S)-{[(2R,3S,4R,5R)-5-(4-aminopyrrolo[2,1-f][1,2,4]triazin-7-yl)-5-cyano-3,4-dihydroxytetrahydrofuran-2-yl]methoxy}(phenoxy)phosphoryl]amino}propanoate]?
Answer: Appearance in water at 40 mg/mL ([2]; water, 40 mg/mL, FIG. 2): suspension; Clinical recovery, figure in parentheses (share of patients) ([3]; 5-Day RDV, n = 200, Day 14): (65); Clinical recovery, patients ([3]; 5-Day RDV, n = 200, Day 14): 129; Death, figure in parentheses (share of patients) ([3]; 5-Day RDV, n = 200, Day 14): (8); Death, patients ([3]; 5-Day RDV, n = 200, Day 14): 16; Discharge, figure in parentheses (share of patients) ([3]; 5-Day RDV, n = 200, Day 14): (60); Discharge, patients ([3]; 5-Day RDV, n = 200, Day 14): 120; ≥ 2-point improvement in ordinal scale, figure in parentheses (share of patients) ([3]; 5-Day RDV, n = 200, Day 14): (65); ≥ 2-point improvement in ordinal scale, patients ([3]; 5-Day RDV, n = 200, Day 14): 129; AE leading to discontinuation, figure in parentheses (share of patients) ([3]; 5-Day RDV, n = 200): (5); AE leading to discontinuation, patients ([3]; 5-Day RDV, n = 200): 9; Any adverse event (AE), figure in parentheses (share of patients) ([3]; 5-Day RDV, n = 200): (71); Any adverse event (AE), patients ([3]; 5-Day RDV, n = 200): 141; Grade ≥ 3 study drug-related AE, figure in parentheses (share of patients) ([3]; 5-Day RDV, n = 200): (4); Grade ≥ 3 study drug-related AE, patients ([3]; 5-Day RDV, n = 200): 8; Study drug-related serious adverse event (SAE), figure in parentheses (share of patients) ([3]; 5-Day RDV, n = 200): (2); Study drug-related serious adverse event (SAE), patients ([3]; 5-Day RDV, n = 200): 3; Time to clinical improvement for 50% of patients ([3]; 5-day treatment group): 10 days; Clinical recovery, figure in parentheses (share of patients) ([3]; 10-Day RDV, n = 197, Day 14): (54); Clinical recovery, patients ([3]; 10-Day RDV, n = 197, Day 14): 106; Death, figure in parentheses (share of patients) ([3]; 10-Day RDV, n = 197, Day 14): (11); Death, patients ([3]; 10-Day RDV, n = 197, Day 14): 21; Discharge, figure in parentheses (share of patients) ([3]; 10-Day RDV, n = 197, Day 14): (52); Discharge, patients ([3]; 10-Day RDV, n = 197, Day 14): 103; ≥ 2-point improvement in ordinal scale, figure in parentheses (share of patients) ([3]; 10-Day RDV, n = 197, Day 14): (54); ≥ 2-point improvement in ordinal scale, patients ([3]; 10-Day RDV, n = 197, Day 14): 107; AE leading to discontinuation, figure in parentheses (share of patients) ([3]; 10-Day RDV, n = 197): (10); AE leading to discontinuation, patients ([3]; 10-Day RDV, n = 197): 20; Any adverse event (AE), figure in parentheses (share of patients) ([3]; 10-Day RDV, n = 197): (74); Any adverse event (AE), patients ([3]; 10-Day RDV, n = 197): 145; Grade ≥ 3 study drug-related AE, figure in parentheses (share of patients) ([3]; 10-Day RDV, n = 197): (5); Grade ≥ 3 study drug-related AE, patients ([3]; 10-Day RDV, n = 197): 10; Study drug-related serious adverse event (SAE), figure in parentheses (share of patients) ([3]; 10-Day RDV, n = 197): (2); Study drug-related serious adverse event (SAE), patients ([3]; 10-Day RDV, n = 197): 4; Time to clinical improvement for 50% of patients ([3]; 10-day treatment group): 11 days; Cmax ([4]; after 200 mg dose of Remdesivir): 5440 ng/mL; Median terminal half-life ([4]; human, in vivo): approximately 1 hours; Plasma half-life ([4]; in vivo, iv): approximately 1 hour

Question: Which results are given for “BHALys[Lys]2[Lys]4[Lys]8[Lys]16[Lys]32[(α-NH-6N-TDA-Remdesivir)32(ε-NH-COPEG2000)32] [RHa-5]”?
Answer: Solubility in EtOH:Water (1:9 v/v) ([2]; EtOH:Water (1:9 v/v), conjugate mass, rt): ≥ 543 mg/mL; Solubility in EtOH:Water (1:9 v/v), as Remdesivir RHa-1 ([2]; EtOH:Water (1:9 v/v), expressed as Remdesivir RHa-1): ≥ 107 mg/mL; Viscosity at 20° C. [5]: 144.2 cP; Viscosity at 25° C. [5]: 100.6 cP; Approx. Time taken for 50% Remdesivir release [1]: ~58 h
